The text below walks through data of US8497228B2, “Active substance combinations with insecticidal and acaricidal properties” (Bayer Cropscience AG, priority 2007, dated 2013).

Assay [1] deals with mustard beetle larvae (Phaedon cochleariae). Put plainly: Phaedon cochleariae larvae test (Example B, cabbage leaves sprayed). As to conditions: 100 g/ha, spray.
Assay [2] deals with army worm larvae (Spodoptera frugiperda). Description: Spodoptera frugiperda larvae test (Example C, cabbage leaves sprayed). Format: in vivo. As to conditions: spray.
The subject of assay [3] is green peach aphid (Myzus persicae). Description: Myzus persicae test (Example A1, cabbage leaves sprayed). It is filed as in vivo. As to conditions: spray.
The test system is the same in assay [4]. Description: Myzus persicae test (Example A2, cabbage leaves dipped). Format: in vivo. Conditions: dipping. How it is done: Cabbage leaves (Brassica oleracea) which are severely infested with the green peach aphid (Myzus persicae) are treated by dipping into the active substance preparation of the desired concentration.

`O=C1C=C(N(CCF)Cc2ccc(Cl)nc2)CO1` [Compound I-4, 4-{[(6-chloropyrid-3-yl)methyl](2-fluoroethyl)amino}furan-2(5H)-one]: the “Destruction in % after 2 days” value in assay [1] was 0%. For the same molecule, the “Destruction in % after 6 days” value in assay [2] (4 g/ha) amounted to 0%. In addition, the “Destruction in % after 1 day” value in assay [3] (4 g/ha) is 30%.
Turning to `O=C1C=C(N(Cc2ccc(Cl)nc2)CC(F)F)CO1` [Compound I-5, 4-{[(6-chloropyrid-3-yl)methyl](2,2-difluoroethyl)amino}furan-2(5H)-one], the “Destruction in % after 6 days” value in assay [2] (0.8 g/ha) came to 0%.
`CN(Cc1cnc(Cl)c(F)c1)C1=CC(=O)OC1` [Compound I-6, 4-{[(6-chloro-5-fluoropyrid-3-yl)methyl](methyl)amino}furan-2(5H)-one]: the “Destruction in % after 2 days” value in assay [1] was 0%. The “Destruction in % after 6 days” value in assay [2] (4 g/ha) was 0%. Besides, the “Destruction in % after 1 day” value in assay [3] (0.16 g/ha) stood at 30%.
Turning to `CN(Cc1ccc(Cl)nc1)C1=CC(=O)OC1` [Compound I-10, 4-{[(6-chloropyrid-3-yl)methyl](methyl)amino}furan-2(5H)-one], in assay [4] (0.8 ppm), the “Destruction in % after 1 day” value is 45%.
As to `Cc1cc(C(F)(C(F)(F)F)C(F)(F)F)ccc1NC(=O)c1cccc(Cl)c1C(=O)N[C@@H](C)CS(C)(=O)=O` [Compound IIb, (S)-3-chloro-N^1-{2-methyl-4-[1,2,2,2-tetrafluoro-1-(trifluoromethyl)ethyl]phenyl}-N^2-(1-methyl-2-methylsulphonylethyl)phthalamide], the figures for the “Destruction in % after 6 days” value in assay [2] (0.16 g/ha) and in assay [2] (0.8 g/ha) were 0% and 67%, respectively. Also, the entries for the “Destruction in % after 1 day” value in assay [3] (0.8 g/ha) and in assay [4] (100 ppm) were 0% and 10%, respectively.
For the molecule `Cc1cc(C(F)(C(F)(F)F)C(F)(F)F)ccc1NC(=O)c1cccc(I)c1C(=O)NC(C)(C)CS(C)(=O)=O` [Flubendiamide, flubendiamide, reference compound], the “Destruction in % after 2 days” value in assay [1] is 17%. Further, the “Destruction in % after 6 days” value turned out to be 33% in assay [2] (0.8 g/ha) and 67% in assay [2] (4 g/ha). Also, the “Destruction in % after 1 day” value in assay [3] (0.16 g/ha) was determined as 0%.
